Patent US20060014737A1, “Methods of treatment of amyloidosis using bi-aryl aspartyl protease inhibitors” (priority 2004, published 2006)
Values joined by “and” are separate entries in the source; they are usually repeats but may differ in a detail not shown here. Identical values can stand only once.

Tests used:
[1] = test system: catD versus beta-secretase (BACE); assay: Selectivity for BACE versus catD (ratio of IC50 values); format: biochemical; settings: each value an average of four runs; multiple values = more than one experiment
Procedure: (§1) Investigation of potential beta-secretase inhibitors produced compounds with increased selectivity for beta-secretase over other aspartyl proteases such as cathepsin D (catD), cathepsin E (catE), HIV protease, and renin. Selectivity was calculated as a ratio of inhibition (IC50) values in which the inhibition of beta-secretase was compared to the inhibition of other aspartyl proteases. […] Alternatively, a compound is selective when its binding affinity is greater for its desired target (e.g., beta-secretase) versus a secondary target (e.g., catD). Accordingly, methods of treatment include administering selective compounds of formula (I) having a lower IC50 value for inhibiting beta-secretase, or greater binding affinity for beta-secretase, than for other aspartyl proteases such as catD, catE, HIV protease, or renin. A selective compound is also capable of producing a higher ratio of desired effects to adverse effects, resulting in a safer method of treatment.
The compounds of formula (I) can be selective for beta-secretase versus catD. […] Selectivity is reported as the ratio of IC50(catD):IC50(BACE).
(§2) In the following examples, each value is an average of four experimental runs and multiple values for one compound indicate that more than one experiment was conducted.

A-beta = assay: Efficacy of compounds to inhibit A-beta concentration; format: in vivo, rat; settings: % inhibition of A-beta vs vehicle control
Procedure: Efficacious compounds of the present invention are those able to decrease the amount of A-beta produced compared to a control, where beta-secretase mediated cleavage is observed and measured in the absence of the compounds. Detection of efficacy can be by analysis of A-beta levels, for example, by immunoassay, fluorometric or chromogenic assay, HPLC, or other means of detection. The efficacy of the compounds of formula (I) was determined as a percentage inhibition corresponding to A-beta concentrations for tissue treated and untreated with a compound of formula (I).
The invention encompasses compounds of formula (I) that are efficacious. Efficacy is calculated as a percentage of concentrations as follows: Efficacy=(1−(total A-beta in dose group/total A-beta in vehicle control))*100% wherein the “total A-beta in dose group” equals the concentration of A-beta in the tissue, (e.g., rat brain) treated with the compound, and the “total A-beta in vehicle control” equals the concentration of A-beta in the tissue, yielding a % inhibition of A-beta production. Statistical significance is determined by p-value <0.05 using the Mann Whitney t-test. See, for example, Dovey et al., J. Neurochemistry, 2001, 76:173-181.

[2] = test system: catE versus beta-secretase (BACE); assay: Selectivity for BACE versus catE (ratio of IC50 values); format: biochemical; settings: each value an average of four runs; multiple values = more than one experiment
Procedure: as §1
The compounds of formula (I) can be selective for beta-secretase versus catE. […] Selectivity is reported as the ratio of IC50(catE):IC50(BACE).
as §2

CC(=O)NC(Cc1cc(F)cc(F)c1)C(O)CNCc1cc(CC(C)(C)C)ccc1-n1nccn1 (centres unmarked) [Example 41.7, N-(1-(3,5-difluorophenyl)-3-hydroxy-4-(5-neopentyl-2-(2H-1,2,3-triazol-2-yl)benzylamino)butan-2-yl)acetamide]
Selectivity IC50(catD)/IC50(BACE) [1]: >33.1

CC(=O)NC(Cc1cc(F)cc(F)c1)C(O)CNCc1cc(CC(C)(C)C)ccc1-n1ccnc1 (centres unmarked) [Example 41.1, N-{1-(3,5-Difluoro-benzyl)-3-[5-(2,2-dimethyl-propyl)-2-imidazol-1-yl-benzylamino]-2-hydroxy-propyl}-acetamide]
Efficacy (% Inhibition, 100 mg/kg) cortex (A-beta; cortex): 15%
Efficacy (% Inhibition, 100 mg/kg) plasma (A-beta; plasma): 47%

CC(=O)NC(Cc1cc(F)cc(F)c1)C(O)CNCc1cc(CC(C)(C)C)ccc1-n1cnc(C)c1 (centres unmarked) [Example 41.4, N-{1-(3,5-Difluoro-benzyl)-3-[5-(2,2-dimethyl-propyl)-2-(4-methyl-imidazol-1-yl)-benzylamino]-2-hydroxy-propyl}-acetamide]
Selectivity IC50(catD)/IC50(BACE) [1]: 1.7

CC(=O)NC(Cc1cc(F)cc(F)c1)C(O)CNCc1cc(CC(C)(C)C)ccc1-n1cnc(CO)c1 (centres unmarked) [Example 41.3, N-(1-(3,5-difluorophenyl)-3-hydroxy-4-(2-(4-(hydroxymethyl)-1H-imidazol-1-yl)-5-neopentylbenzylamino)butan-2-yl)acetamide]
Selectivity IC50(catD)/IC50(BACE) [1]: 1.6

CC(=O)NC(Cc1cc(F)cc(F)c1)C(O)CNCc1cc(CC(C)(C)C)ccc1-n1cnc2ccccc21 (centres unmarked) [Example 41.5, N-[3-[2-Benzoimidazol-1-yl-5-(2,2-dimethyl-propyl)-benzylamino]-1-(3,5-difluoro-benzyl)-2-hydroxy-propyl]-acetamide]
Selectivity IC50(catD)/IC50(BACE) [1]: 3.6 and 3.0

CC(=O)NC(Cc1cc(F)cc(F)c1)C(O)CNCc1cc(CC(C)(C)C)ccc1-n1nccn1 (centres unmarked) [Example 41.11, N-(1-(3,5-difluorophenyl)-3-hydroxy-4-(5-neopentyl-2-(2H-1,2,3-triazol-2-yl)benzylamino)butan-2-yl)acetamide]
Selectivity IC50(catE)/IC50(BACE) [2]: 1.4

CC(=O)NC(Cc1cc(F)cc(F)c1)C(O)CNCc1cc(CC(C)(C)C)ccc1-n1cnc(CO)c1 (centres unmarked) [Example 41.9, N-(1-(3,5-difluorophenyl)-3-hydroxy-4-(2-(4-(hydroxymethyl)-1H-imidazol-1-yl)-5-neopentylbenzylamino)butan-2-yl)acetamide]
Selectivity IC50(catE)/IC50(BACE) [2]: 1.2
